In general, GI50 refers to the concentration at which growth is held to half of that of the control.

The record followed here is patent US12350272B2, “Pyridopyrimidinone derivatives for use as AXL inhibitors” (OSCOTEC INC., priority 2018, dated 2025).

One data set deals with JAK2 (Homo sapiens (Human), UniProt O60674). Kind of data set: Biochemical inhibition of JAK2. Particulars: Table 2, range of IC50 value.
A further data set relates to MDA-MB-231 cells. Kind of data set: Cell viability assay (ATPLite), MDA-MB-231. Particulars: for GI50: 72 hour incubation. In kind it is cell-based, human. The source says: (§1) Axl is a member of the TAM (TYRO3-Axl-MER) family of receptor tyrosine kinases, which, when activated, can increase tumor cell survival, proliferation, migration and invasion, angiogenesis, and tumor-host interactions. Upon GAS6 binding to Axl, Axl subsequently activates the signaling pathways downstream such as phosphoinositide 3-kinase (PI3K), RAt sarcoma (RAS), and extracellular signal regulated kinase (ERK).
(§2) This cell line was maintained with an Roswell Park Memorial Institute (RPMI) medium (HYCLONE™) containing 10% bovine calf serum (BCS; HYCLONE™) supplemented iron. The cells were seeded at 2×10^4 cells in 96-well culture plates, and serially diluted compounds were then added. After a 72 hour incubation period at 37° C., cell viability was measured using the ATPLite 1 step assay (PERKIN-ELMER™) that is based on the quantification of ATP from viable cells.
In general terms: In ATP-based viability assays light output follows the ATP content of the culture.

The next data set deals with Hs578T cells. Kind of data set: Cell viability assay (ATPLite), Hs578T. Particulars: 72 hour incubation. The class given is cell-based, human.
Excerpt: as §1, §2

The test system of data set [1] is mouse 4T1 breast cancer cells. Kind of data set: 4T1 spontaneous (orthotopic) metastasis model, combination with anti-PD-1 antibody. The class given is in vivo, BALB/c female mice. The source says: A day before cell inoculation, fur on the right flank of BALB/C mice was depilated using hair trimmer. On the following day, the skin area around the injection site was disinfected by mildly swabbing with surgical spirit. To establish allografts, BALB/c female mice (7-weeks age) were implanted orthotopically into the mammary gland with 5×10^6 syngeneic 4T1 cells. Mice were sacrificed when average tumor volume reached 1500 mm^3.
Mice were randomized based on tumor volume (˜50 mm^3) and five mice were allocated per group. Tumor grafts were measured after approximately 2 days of cell inoculation when they become palpable. […] After treatment for 28 days, all mice were sacrificed. 4T1 lung metastasis was determined by counting the tumor nodules through H&E staining. 4T1 solid tumor on primary site was measured by a tumor 3D scanner, TM900 (Peria, Belgium). […] The metastatic nodule was measured by microscopic observation.
BALB/c female mice (7-weeks age) were implanted orthotopically into the mammary gland with 5×10^6 syngeneic 4T1 cells. […] Mice were sacrificed on day 28 and lung metastasis was evaluated by counting nodules.

Data set [2] relates to CT26-Luciferase colon cancer cells. Kind of data set: CT26 peritoneal in vivo metastasis model. Particulars: 30 mg/kg/day.
Protocol: (§4) Compounds of Formula (I) as obtained above were tested in metastasis models using mouse B16F10 melanoma and CT26-Luciferase colon cancer cells. […] Cell line was harvested by trypsinization when they reached 70-80% confluence. A day before cell inoculation, C57BL/6 mice were maintained under pathogen-free conditions according to SPF guideline (room temperature, 40-60% humidity) and housed in the ABMRC at the Yonsei University.
(§5) Mice were randomized, and three mice for B16F10 model and five mice for CT26 peritoneal metastasis model were allocated per group. Lung metastasis was measured after 14 days of cell inoculation. […] Vehicle for oral administration consists of 10% sodium sulphobutylether β-cyclodextrine (SBECD) in 50 mM citrate buffer (pH 3.0). Animals were monitored for mortality and clinical signs (such as illness and behavioral changes) daily throughout the study. In B16F10 model, after mice sacrificed, organs were fixed with 10% of Formalin solution for 1 day. The FFPE block was sliced by 4 μm thinness on coating slides for applying the H&E staining. Then, tumor nodule counting was calculated. CT26 metastasis was determined by measuring luminescence intensity in peritoneal cavity.
Data set [3] concerns mouse B16F10 melanoma cells. Description: B16F10 lung in vivo metastasis model. The conditions noted are these: oral 30 mg/kg/day.
Protocol: as §4, §5
The next data set addresses Truncated human Axl (Homo sapiens, UniProt P30530). Description: Kinase inhibition assay (inhibition of enzymatic Axl kinase activity). In kind it is biochemical. As for the experimental part:
Compounds of Formula (I) as obtained above were assayed to measure their capacity to inhibit Axl kinase. Axl belongs to the recently identified TYRO-3, Axl, MERTK (TAM) receptor tyrosine kinase (RTK) family. […] Upon GAS6 binding, Axl homodimerizes and subsequently induces several downstream signaling pathways involved in cell proliferation, migration, invasion, anti-apoptosis, angiogenesis, metastasis, and therapeutic resistance. Upregulation of Axl has been reported in a wide variety of cancer cell lines as well as in cancer specimens from patients with breast cancer, acute leukemia, colorectal cancer, lung cancer, melanoma, ovarian cancer, or prostate cancer, among others.
Compounds of Formula (I) as obtained above were initially diluted to […] in 100% DMSO (CALBIOCHEM™) for storage and made into kinase buffer solution to create a compound concentration ranging from 1 uM and 10 uM. Serial dilutions of the compounds were dispensed into a 96-well plate (GREINER BIOSCIENCES™) at 6 μL each. Truncated human Axl (CARNA BIOSCIENCES™) were diluted in kinase buffer and added to the compound solutions and pre-incubated for 30 minutes at room temperature. […] The reaction mixture was incubated for 1 hour. Following the incubation, the stop solution made with EDTA, water, and Lance detection buffer ([…]™) were added (12 μL each) to stop phosphorylation.

Another data set relates to 4T1. Kind of data set: Anti-tumor activity in immunodeficient mice. In kind it is in vivo. Particulars: 30 mg/kg/day.
Data set [4] concerns MDA-MB-231 breast cancer cell line. Kind of data set: Matrigel invasion assay. The class given is cell-based, human. Particulars: even at 0.03 μM, compared to R428. The method, then:
(§3) In order to test whether the compounds of Formula (I) show the effect on inhibition of metastasis, cell migratory and invasive behaviors analyzed using transwell and matrigel invasion assays in MDA-MB-231 breast cancer cell line. […] Cell migration was performed by the transwell assay (BD Biosciences, CA, USA). Briefly, 5×10^4 cells in serum-free RPMI-1640 were seeded on a membrane (8.0-μm pore size) inserted in the wells of a 24-well plate. RPMI-1640 containing 10% FBS was added to the lower chamber of each well. After 24 h, cells in the upper chamber were removed by cotton swab and the cells that had reached the underside of the membrane were fixed and stained with crystal violet (1% in methyl alcohol) for 10 min. The cells located on the underside of the filter (5 fields/filter) were counted. The cell invasion assay was carried out similarly, except that the matrigel (BD Biosciences, CA, USA) was added to each well 6 h before cells were seeded on the membrane. After 48 h, matrigel and any remaining cells in the upper chamber were removed by cotton swabs. Cells on the lower surface of the membrane were fixed and stained as described above. Data are representative of results from three independent fields of stained membrane.

Data set [5] has the same test system. Kind of data set: Transwell migration assay. In kind it is cell-based, human. The conditions noted are these: even at 0.03 μM, compared to R428. The method, then: as §3
For data set [6], the system named is mouse breast 4T1 cancer cells. Description: Anti-tumor activity in breast 4T1 syngeneic in vivo cancer model. Particulars: BALB/C mice. The method, then:
A day before cell inoculation, fur on the right flank of BALB/C mice was depilated using hair trimmer. On the following day, the skin area around the injection site was disinfected by mildly swabbing with surgical spirit. To establish allografts, cells were suspended in serum-free media and mixed 1:1 with matrigel to obtain 1×10^6 cells/100 μL. […] Mice were randomized based on tumor volume and six mice were allocated per group. Tumor grafts were measured after approximately 5 days of cell inoculation when they become palpable. […] Tumor growth inhibition (TGI) was calculated as follows: % TGI=[1−(Treatment TVFinal−Treatment TVinitial)/(Control TVFinal−Control TVInitial)]*100

[7] abbreviates: Table 2, range of IC50 value, read-out: Axl.
Where [8] appears, read: day 15, oral QD 30 mg/kg/day for 14 days.

Counter-ions that a name gives are not always drawn. Like-named read-outs stand apart in the source and are kept apart here.

Truncated human Axl, sequence (P30530 26-894 limits assumed): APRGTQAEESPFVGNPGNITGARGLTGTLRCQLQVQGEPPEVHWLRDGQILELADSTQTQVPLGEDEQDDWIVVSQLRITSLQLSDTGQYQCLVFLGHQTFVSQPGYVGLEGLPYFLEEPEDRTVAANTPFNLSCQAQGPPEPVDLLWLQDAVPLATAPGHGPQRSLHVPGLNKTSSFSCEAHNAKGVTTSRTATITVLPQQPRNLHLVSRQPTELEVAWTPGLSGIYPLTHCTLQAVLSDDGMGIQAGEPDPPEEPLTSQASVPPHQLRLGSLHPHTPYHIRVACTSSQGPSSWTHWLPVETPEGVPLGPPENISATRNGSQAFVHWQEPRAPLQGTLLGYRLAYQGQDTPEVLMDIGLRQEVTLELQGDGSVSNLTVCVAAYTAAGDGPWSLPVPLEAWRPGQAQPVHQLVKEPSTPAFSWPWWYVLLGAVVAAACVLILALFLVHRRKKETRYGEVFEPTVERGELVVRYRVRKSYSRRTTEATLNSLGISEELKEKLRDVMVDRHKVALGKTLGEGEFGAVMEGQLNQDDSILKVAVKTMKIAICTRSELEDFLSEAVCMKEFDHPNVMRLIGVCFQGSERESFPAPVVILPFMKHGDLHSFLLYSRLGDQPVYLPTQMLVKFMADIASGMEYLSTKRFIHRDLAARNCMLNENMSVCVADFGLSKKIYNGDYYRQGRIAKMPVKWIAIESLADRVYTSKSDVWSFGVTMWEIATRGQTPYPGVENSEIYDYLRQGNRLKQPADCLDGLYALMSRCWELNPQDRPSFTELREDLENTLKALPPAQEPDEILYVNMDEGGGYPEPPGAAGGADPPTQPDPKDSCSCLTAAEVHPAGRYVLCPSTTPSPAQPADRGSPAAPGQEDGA
JAK2, sequence (O60674 whole entry, species assumed): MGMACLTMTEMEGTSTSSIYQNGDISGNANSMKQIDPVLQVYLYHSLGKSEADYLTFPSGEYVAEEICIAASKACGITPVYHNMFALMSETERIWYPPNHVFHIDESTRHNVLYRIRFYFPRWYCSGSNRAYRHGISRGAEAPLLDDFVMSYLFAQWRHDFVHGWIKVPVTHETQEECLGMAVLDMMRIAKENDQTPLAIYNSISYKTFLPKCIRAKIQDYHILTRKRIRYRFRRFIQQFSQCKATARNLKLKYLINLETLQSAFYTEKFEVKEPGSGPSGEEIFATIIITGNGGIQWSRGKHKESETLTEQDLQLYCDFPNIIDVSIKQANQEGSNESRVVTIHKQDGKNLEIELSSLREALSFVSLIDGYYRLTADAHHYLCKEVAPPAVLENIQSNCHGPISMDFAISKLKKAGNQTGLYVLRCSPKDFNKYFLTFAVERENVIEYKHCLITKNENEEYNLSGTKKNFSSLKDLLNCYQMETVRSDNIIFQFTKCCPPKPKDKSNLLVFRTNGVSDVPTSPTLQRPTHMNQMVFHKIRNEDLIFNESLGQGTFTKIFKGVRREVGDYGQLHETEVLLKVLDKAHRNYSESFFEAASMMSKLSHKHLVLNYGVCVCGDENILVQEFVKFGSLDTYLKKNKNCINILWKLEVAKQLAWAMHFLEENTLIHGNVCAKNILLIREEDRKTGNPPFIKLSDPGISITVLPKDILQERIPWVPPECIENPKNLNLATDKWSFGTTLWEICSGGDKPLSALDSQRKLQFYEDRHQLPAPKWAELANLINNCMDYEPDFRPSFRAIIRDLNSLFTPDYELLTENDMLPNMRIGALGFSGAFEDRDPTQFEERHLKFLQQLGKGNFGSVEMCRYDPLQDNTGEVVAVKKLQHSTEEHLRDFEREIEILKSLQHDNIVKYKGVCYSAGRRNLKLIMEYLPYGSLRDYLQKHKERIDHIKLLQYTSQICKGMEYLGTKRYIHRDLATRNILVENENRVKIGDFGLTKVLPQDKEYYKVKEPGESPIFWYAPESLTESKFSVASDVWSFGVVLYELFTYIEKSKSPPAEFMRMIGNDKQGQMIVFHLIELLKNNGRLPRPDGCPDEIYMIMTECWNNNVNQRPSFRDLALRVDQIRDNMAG

Turning to `CCc1nc(C(N)=O)c(Nc2ccc(N3CCC(N4CCN(C)CC4)CC3)c(OC)c2)nc1NC1CCOCC1` [ASP2215, gilteritinib, reference compound], on JAK2, the IC50 lay in the range of 11 to 100 nM. Also, the concentration for 50% growth inhibition (GI50) with MDA-MB-231 cells (Homo sapiens, MDA-MB-231, 72 h) was 3100 to 10000 nM; with Hs578T cells (Homo sapiens, Hs-578T, 72 h), 3100 to 10000 nM.
Take `CN1CCC(Nc2nc(Nc3ccc(Oc4ccccc4)cc3)c3c(=O)[nH]cc(Br)c3n2)CC1.Cl` [Compound 226, 8-bromo-2-((1-methylpiperidin-4-yl)amino)-4-((4-phenoxyphenyl)amino)pyrido[4,3-d]pyrimidin-5(6H)-one hydrochloride]: the “total metastatic burden and number of larger metastases (medium+large, ≥5 mm diameter)” value in data set [1] (30 mg/kg/day, 4 weeks) is reported as “significantly suppressed”. In addition, the “tumor growth on primary site (mammary fat pad)” value in data set [1] (4 weeks treatment, no different efficacy between groups) was “inhibition of tumor growth”. In addition, in data set [1] (day 28, compound 226 30 mg/kg/day and/or anti-PD-1 antibody twice/week for 4 weeks), the “metastasis into the lung (tumor nodules)” value is “significantly decreased”. Also, in data set [2] (CT-26 peritoneal metastasis model), the “luminescence intensity in the peritoneal cavity” value is given as “drastically reduced”. The survival of mice result in data set [2] (QD, vehicle mice started to die from day 9) is “alive during the treatment period”. The molecule also gave an IC50 against JAK2 of 101 to 1000 nM. The “tolerability (clinical signs)” value in data set [3] (B16F10 lung and CT-26 peritoneal metastasis models) is “well tolerated”. In data set [3] (B16F10 model), the “lung metastasis in gross lung specimens” value is recorded as “dramatically inhibited lung metastasis” and the tumor nodules entry is given as “no tumor nodules”.
As to `CN1CCC(Nc2nc(Nc3ccc(OC4CCCCC4)cc3)c3c(=O)[nH]cc(Br)c3n2)CC1` [Compound 233, 8-bromo-4-((4-(cyclohexyloxy)phenyl)amino)-2-((1-methylpiperidin-4-yl)amino)pyrido[4,3-d]pyrimidin-5(6H)-one hydrochloride], the IC50 at Truncated human Axl (Table 1, read-out: Axl (IC50)) fell in the range of 101 to 1000 nM; at Truncated human Axl (setting [7]) it was 101 to 1000 nM; at JAK2 it was 101 to 1000 nM. Also, the GI50 in the data set on MDA-MB-231 cells (hydrochloride) lay within 3100 to 10000 nM; in the data set on Hs578T cells (hydrochloride), 1100 to 3000 nM.
In the case of `CN1CCC(Nc2nc(Nc3ccc(OC4CCCC4)cc3)c3c(=O)[nH]cc(Br)c3n2)CC1.Cl` [Compound 237, 8-bromo-4-((4-(cyclopentyloxy)phenyl)amino)-2-((1-methylpiperidin-4-yl)amino)pyrido[4,3-d]pyrimidin-5(6H)-one hydrochloride], on Truncated human Axl (Table 1, read-out: Axl (IC50)), the IC50 was 101 to 1000 nM. For the same molecule, the GI50 with MDA-MB-231 cells (Homo sapiens, MDA-MB-231, 72 h) was in the range of 1100 to 3000 nM; with Hs578T cells (Homo sapiens, Hs-578T, 72 h) it was 100 to 1000 nM. In addition, the “inhibition level in Axl-harboring breast cancer cell lines” value in the data set with MDA-MB-231 cells (compared with references ASP2215 and R428, MDA-MB-231 and Hs578T) was “greater than those exhibited by reference ASP2215 and R428”.
`CN1CCC(Nc2nc(Nc3ccc(Oc4cccc(F)c4)cc3)c3c(=O)[nH]cc(Br)c3n2)CC1.Cl` [Compound 238, 8-bromo-4-((4-(3-fluorophenoxy)phenyl)amino)-2-((1-methylpiperidin-4-yl)amino)pyrido[4,3-d]pyrimidin-5(6H)-one hydrochloride]: the IC50 on Truncated human Axl (Table 1, read-out: Axl (IC50)) is 11 to 100 nM; on Truncated human Axl (setting [7]), 11 to 100 nM; on JAK2, 101 to 1000 nM. In addition, the “inhibition of kinase activity of Axl” value on Truncated human Axl (result in words) was “strong inhibition”. Besides, the anti-tumor effect result in the data set on 4T1 is listed as “no anti-tumor effect”. Further, the “invasion of MDA-MB-231 cells” value in [4] was “significantly inhibited”. Besides, the “migration of MDA-MB-231 cells” value in data set [5] was “significantly inhibited”. Also, the average tumor volume in data set [6] (setting [8]) was found to be 669±60 mm^3. Further, the “tumor growth inhibition (TGI)” value in data set [6] (setting [8]) stood at 59%. In addition, the “tolerability (clinical signs, body weight)” value in data set [6] (oral QD 30 mg/kg/day) was “well tolerated”. Also, the GI50 in the data set on MDA-MB-231 cells (hydrochloride) and in the data set with Hs578T cells (hydrochloride) was 1100 to 3000 nM each time.
Take `CN1CCC(Nc2nc(Nc3ccc(Oc4cccc(F)c4)cc3)c3c(=O)[nH]cc(Br)c3n2)CC1` [Compound 240, 8-bromo-4-((4-(3-fluorophenoxy)phenyl)amino)-2-((1-methylpiperidin-4-yl)amino)pyrido[4,3-d]pyrimidin-5(6H)-one]: the IC50 at Truncated human Axl (Table 1, read-out: Axl (IC50)) lay within 11 to 100 nM; on Truncated human Axl (setting [7]) it was 11 to 100 nM; against JAK2, 101 to 1000 nM. The concentration for 50% growth inhibition (GI50) in the data set on MDA-MB-231 cells and with Hs578T cells was 3100 to 10000 nM throughout.
Take `CN1CCC(Nc2nc(Nc3ccc(Oc4ccc(F)c(F)c4)cc3)c3c(=O)[nH]cc(Br)c3n2)CC1` [Compound 241, 8-bromo-4-((4-(3,4-difluorophenoxy)phenyl)amino)-2-((1-methylpiperidin-4-yl)amino)pyrido[4,3-d]pyrimidin-5(6H)-one hydrochloride]: the IC50 lay within 11 to 100 nM at Truncated human Axl (Table 1, read-out: Axl (IC50)); 11 to 100 nM at Truncated human Axl (setting [7]); 1000 to 10000 nM on JAK2. Further, the GI50 in the data set on MDA-MB-231 cells (Homo sapiens, MDA-MB-231, 72 h) lay within 3100 to 10000 nM; in the data set with Hs578T cells (Homo sapiens, Hs-578T, 72 h) it was 3100 to 10000 nM.
At JAK2, `Nc1nc(Nc2ccc3c(c2)CC[C@@H](N2CCCC2)CC3)nn1-c1cc2c(nn1)-c1ccccc1CCC2` [Compound R428, reference compound] registered an IC50 of 101 to 1000 nM. For the same molecule, the GI50 in the data set with MDA-MB-231 cells (Homo sapiens, MDA-MB-231, 72 h) fell in the range of 11000 to 30000 nM; in the data set with Hs578T cells (Homo sapiens, Hs-578T, 72 h), 3100 to 10000 nM.
